Results taken from patent publication US20230265151A1, “GIP/GLP1 CO-AGONIST COMPOUNDS” (priority 2020, published 2023).
Read-outs that look alike come from different tables or passages of the source.

Columns and labels:
Type in all cases: cell-based
hGIPR = molecular target: T1, hGIPR (Homo sapiens, UniProt P48546); experiment: Functional cAMP formation (HTRF) in HEK-293 clonal cells expressing hGIPR, 0.1% bovine casein, without or with 1.0% human serum albumin; settings: for Emax: percent of maximal response to GIP(1-42)NH2; for EC50: geometric mean
T1 construct: expressed in transfected cells
T1 sequence (P48546 22-466): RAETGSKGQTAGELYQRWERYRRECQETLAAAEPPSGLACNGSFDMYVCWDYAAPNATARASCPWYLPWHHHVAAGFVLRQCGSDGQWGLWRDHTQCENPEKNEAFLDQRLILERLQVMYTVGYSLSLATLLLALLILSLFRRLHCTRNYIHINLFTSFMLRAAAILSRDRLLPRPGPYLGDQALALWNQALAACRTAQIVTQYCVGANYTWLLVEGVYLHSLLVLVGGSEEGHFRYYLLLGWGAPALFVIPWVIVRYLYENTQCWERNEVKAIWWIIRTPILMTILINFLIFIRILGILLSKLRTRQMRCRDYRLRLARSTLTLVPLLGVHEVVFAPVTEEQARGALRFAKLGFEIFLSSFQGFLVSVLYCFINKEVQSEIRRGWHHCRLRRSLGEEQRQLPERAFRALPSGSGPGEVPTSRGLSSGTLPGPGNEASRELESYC
Method in brief: (§1)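 Readings of the HTRF 665/620 nm ratio, which falls as cAMP rises, were converted to nM cAMP using a standard curve after 30 min peptide exposure at 37° C.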

hGLP-1R = hGLP-1R (Homo sapiens, UniProt P43220); experiment: Functional cAMP formation (HTRF) in HEK-293 clonal cells expressing hGLP-1R, 0.1% bovine casein, without or with 1.0% human serum albumin; parameters: expressed in transfected cells; settings: for Emax: percent of maximal response to GLP-1(7-36)NH2; for EC50: cAMP, 0.1% bovine casein (no human serum albumin), geometric mean
Method in brief: as §1

hGCGR = molecular target: T2, hGCGR (Homo sapiens, UniProt P47871); experiment: Functional cAMP formation (HTRF) in HEK-293 clonal cells expressing hGCGR, 0.1% bovine casein, without or with 1.0% human serum albumin; settings: 37° C.
T2 construct: expressed in transfected cells
Method in brief: as §1

[1] = HEK293, cAMP, 37° C., 0.1% bovine casein and 1.0% human serum albumin, read-out: hGIPR Emax, % ± SEM
[2] = cAMP, 37° C., 0.1% bovine casein (no human serum albumin), read-out: hGIPR EC50, nM (SEM, n)
[3] = HEK293, cAMP, 37° C., 0.1% bovine casein and 1.0% human serum albumin, read-out: hGLP-1R Emax, % ± SEM
[4] = 37° C., read-out: hGLP-1R EC50, nM (SEM, n)
[5] = cAMP, 0.1% bovine casein (no human serum albumin), geometric mean, read-out: hGCGR EC50, nM (SEM, n)
[6] = cAMP, 0.1% bovine casein and 1.0% human serum albumin, geometric mean (SEM, n), read-out: hGCGR EC50, nM (SEM, n)
[7] = hGLP-1R EC50, nM (SEM, n), 37° C.
[8] = hGCGR EC50, nM (SEM, n), cAMP, 0.1% bovine casein (no human serum albumin), geometric mean

Chain of hGLP-1R (P43220 24-463): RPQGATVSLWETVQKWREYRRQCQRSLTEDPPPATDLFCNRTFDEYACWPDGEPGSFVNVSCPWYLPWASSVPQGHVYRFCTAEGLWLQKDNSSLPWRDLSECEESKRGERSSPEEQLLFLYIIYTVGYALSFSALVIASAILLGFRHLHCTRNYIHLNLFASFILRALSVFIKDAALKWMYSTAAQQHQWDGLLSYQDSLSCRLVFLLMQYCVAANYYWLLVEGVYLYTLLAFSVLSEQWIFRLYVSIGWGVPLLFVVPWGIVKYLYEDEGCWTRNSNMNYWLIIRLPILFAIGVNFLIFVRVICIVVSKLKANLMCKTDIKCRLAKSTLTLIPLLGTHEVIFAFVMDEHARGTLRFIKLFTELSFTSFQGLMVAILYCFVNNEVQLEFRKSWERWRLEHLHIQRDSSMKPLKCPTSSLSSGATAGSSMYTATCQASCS
T2 sequence (P47871 26-477): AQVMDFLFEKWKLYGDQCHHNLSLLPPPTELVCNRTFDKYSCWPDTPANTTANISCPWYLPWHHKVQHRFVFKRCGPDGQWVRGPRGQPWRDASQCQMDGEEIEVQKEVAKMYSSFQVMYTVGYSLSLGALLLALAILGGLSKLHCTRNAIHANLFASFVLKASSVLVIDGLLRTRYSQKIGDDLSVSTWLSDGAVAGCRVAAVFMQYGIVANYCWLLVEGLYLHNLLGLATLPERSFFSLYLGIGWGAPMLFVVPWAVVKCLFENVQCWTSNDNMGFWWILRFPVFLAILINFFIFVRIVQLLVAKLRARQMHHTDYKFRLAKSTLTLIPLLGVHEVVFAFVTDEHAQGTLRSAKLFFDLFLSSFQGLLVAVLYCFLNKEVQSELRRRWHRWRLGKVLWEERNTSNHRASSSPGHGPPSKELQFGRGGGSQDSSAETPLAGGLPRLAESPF

CC[C@H](C)[C@H](NC(=O)[C@H](CCCN)NC(=O)[C@H](CC(=O)O)NC(=O)[C@H](CC(C)C)NC(=O)[C@](C)(CC(C)C)NC(=O)[C@@H](NC(=O)C(C)(C)NC(=O)[C@H](Cc1ccc(O)cc1)NC(=O)[C@H](CC(=O)O)NC(=O)[C@H](CO)NC(=O)[C@@H](NC(=O)[C@](C)(Cc1ccccc1F)NC(=O)[C@@H](NC(=O)CNC(=O)[C@H](CCC(=O)O)NC(=O)C(C)(C)NC(=O)[C@@H](N)Cc1ccc(O)cc1)[C@@H](C)O)[C@@H](C)O)[C@@H](C)CC)C(=O)N[C@@H](C)C(=O)N[C@@H](CCC(N)=O)C(=O)NC(C)(C)C(=O)N[C@@H](CCC(=O)O)C(=O)N[C@@H](Cc1ccccc1)C(=O)N[C@H](C(=O)N[C@@H](CCCCNC(=O)COCCOCCNC(=O)COCCOCCNC(=O)COCCOCCNC(=O)CC[C@H](NC(=O)CCCCCCCCCCCCC(=O)O)C(=O)O)C(=O)N[C@@](C)(Cc1ccc(O)cc1)C(=O)N[C@@H](CC(C)C)C(=O)N[C@H](C(=O)N[C@@H](CCCCNC(=O)COCCOCCNC(=O)COCCOCCNC(=O)COCCOCCNC(=O)CC[C@H](NC(=O)CCCCCCCCCCCCC(=O)O)C(=O)O)C(=O)NCC(=O)NCC(=O)N1CCC[C@H]1C(=O)N[C@@H](CO)C(=O)N[C@@H](CO)C(=O)NCC(=O)N[C@@H](C)C(=O)N1CCC[C@H]1C(=O)N1CCC[C@H]1C(=O)N1CCC[C@H]1C(=O)N[C@@H](CO)C(N)=O)[C@@H](C)CC)[C@@H](C)CC [Example 343] showed an Emax (hGIPR; [1]) of 90.2%, an Emax (hGIPR; HEK293, cAMP, 37° C., 0.1% bovine casein, arithmetic mean, read-out: hGIPR Emax, % ± SEM) of 98.8% and an EC50 (hGIPR; [2]) of 0.0111 nM. For the same compound, the Emax (hGLP-1R; [3]) was 98.2%, the EC50 (hGLP-1R; [4]) was 0.275 nM and the EC50 (hGCGR; [5]) was > 9950 nM. For the same compound, the EC50 (hGCGR; [6]) was > 9950 nM.
CC[C@H](C)[C@H](NC(=O)[C@H](CC(C)C)NC(=O)[C@](C)(Cc1ccc(O)cc1)NC(=O)[C@@H](CCC(=O)O)NC(=O)[C@@H](NC(=O)[C@H](Cc1ccccc1)NC(=O)[C@H](CCC(=O)O)NC(=O)C(C)(C)NC(=O)[C@H](CCC(N)=O)NC(=O)[C@H](C)NC(=O)[C@H](CCCCNC(=O)COCCOCCNC(=O)COCCOCCNC(=O)CC[C@H](NC(=O)CCCCCCCCCCCCC(=O)O)C(=O)O)NC(=O)[C@H](CCCN)NC(=O)[C@H](CC(=O)O)NC(=O)[C@H](CC(C)C)NC(=O)[C@](C)(CC(C)C)NC(=O)[C@@H](NC(=O)C(C)(C)NC(=O)[C@H](Cc1ccncc1)NC(=O)[C@H](CC(=O)O)NC(=O)[C@H](CO)NC(=O)[C@@H](NC(=O)[C@](C)(Cc1ccccc1F)NC(=O)[C@@H](NC(=O)CNC(=O)[C@H](CCC(=O)O)NC(=O)C(C)(C)NC(=O)[C@@H](N)Cc1ccc(O)cc1)[C@@H](C)O)[C@@H](C)O)[C@@H](C)CC)[C@@H](C)CC)C(=O)N[C@@H](CCC(=O)O)C(=O)NCC(=O)NCC(=O)N1CCC[C@H]1C(=O)N[C@@H](CO)C(=O)N[C@@H](CO)C(=O)NCC(=O)N[C@@H](C)C(=O)N1CCC[C@H]1C(=O)N1CCC[C@H]1C(=O)N1CCC[C@H]1C(=O)N[C@@H](CO)C(=O)N[C@@H](CCCCNC(=O)COCCOCCNC(=O)COCCOCCNC(=O)CC[C@H](NC(=O)CCCCCCCCCCCCC(=O)O)C(=O)O)C(N)=O [Example 359] was tested, and the Emax (hGIPR; [1]) was 81%, the EC50 (hGIPR; [2]) was 0.0261 nM and the Emax (hGLP-1R; [3]) was 95.1%. For the same compound, the EC50 (hGLP-1R; [4]) was 1.18 nM, the EC50 (hGCGR; [5]) was > 10100 nM and the EC50 (hGCGR; [6]) was > 9950 nM.
With CC[C@H](C)[C@H](NC(=O)[C@H](CC(C)C)NC(=O)[C@](C)(Cc1ccc(O)cc1)NC(=O)[C@@H](CCC(=O)O)NC(=O)[C@@H](NC(=O)[C@H](Cc1ccccc1)NC(=O)[C@H](CCC(=O)O)NC(=O)C(C)(C)NC(=O)[C@H](CCC(N)=O)NC(=O)[C@H](C)NC(=O)[C@H](CCCCNC(=O)COCCOCCNC(=O)COCCOCCNC(=O)CC[C@H](NC(=O)CCCCCCCCCCOc1ccc(C(=O)O)cc1)C(=O)O)NC(=O)[C@H](CCCN)NC(=O)[C@H](CC(=O)O)NC(=O)[C@H](CC(C)C)NC(=O)[C@](C)(CC(C)C)NC(=O)[C@@H](NC(=O)[C@H](CO)NC(=O)[C@H](Cc1ccncc1)NC(=O)[C@H](CC(=O)O)NC(=O)[C@H](CO)NC(=O)[C@@H](NC(=O)[C@](C)(Cc1ccccc1F)NC(=O)[C@@H](NC(=O)CNC(=O)[C@H](CCC(=O)O)NC(=O)C(C)(C)NC(=O)[C@@H](N)Cc1ccc(O)cc1)[C@@H](C)O)[C@@H](C)O)[C@@H](C)CC)[C@@H](C)CC)C(=O)N[C@@H](CCC(=O)O)C(=O)NCC(=O)NCC(=O)N1CCC[C@H]1C(=O)N[C@@H](CO)C(=O)N[C@@H](CO)C(=O)NCC(=O)N[C@@H](C)C(=O)N1CCC[C@H]1C(=O)N1CCC[C@H]1C(=O)N1CCC[C@H]1C(=O)N[C@@H](CO)C(=O)N[C@@H](CCCCNC(=O)COCCOCCNC(=O)COCCOCCNC(=O)CC[C@H](NC(=O)CCCCCCCCCCOc1ccc(C(=O)O)cc1)C(=O)O)C(N)=O [Example 285] the Emax (hGIPR; HEK293, read-out: hGIPR Emax, % ± SEM, 0.1% bovine casein and 1.0% human serum albumin, 37° C.) was 84.7%, the EC50 (hGIPR; hGIPR EC50, nM (SEM, n), 0.1% bovine casein and 1.0% human serum albumin, 37° C.) was 1.28 nM and the EC50 (hGIPR; hGIPR EC50, nM (SEM, n), cAMP, 37° C., 0.1% bovine casein (no human serum albumin)) was 0.0115 nM. For the same compound, the Emax (hGLP-1R; HEK293, read-out: hGLP-1R Emax, % ± SEM, 0.1% bovine casein and 1.0% human serum albumin, 37° C.) was 105%, the EC50 (hGLP-1R; [7]) was 1.21 nM and the EC50 (hGCGR; hGCGR EC50, nM (SEM, n), 0.1% bovine casein and 1.0% human serum albumin, geometric mean) was > 9950 nM. The EC50 (hGCGR; [8]) was > 9950 nM.
CC[C@H](C)[C@H](NC(=O)[C@H](CCCN)NC(=O)[C@H](CC(=O)O)NC(=O)[C@H](CC(C)C)NC(=O)[C@](C)(CC(C)C)NC(=O)[C@@H](NC(=O)[C@H](CO)NC(=O)[C@H](CCc1ccc(O)cc1)NC(=O)[C@H](CC(=O)O)NC(=O)[C@H](CO)NC(=O)[C@@H](NC(=O)[C@](C)(Cc1ccccc1F)NC(=O)[C@@H](NC(=O)CNC(=O)[C@H](CCC(=O)O)NC(=O)C(C)(C)NC(=O)[C@@H](N)Cc1ccc(O)cc1)[C@@H](C)O)[C@@H](C)O)[C@@H](C)CC)C(=O)N[C@@H](C)C(=O)N[C@@H](CCC(N)=O)C(=O)NC(C)(C)C(=O)N[C@@H](CCCCNC(=O)COCCOCCNC(=O)COCCOCCNC(=O)CC[C@H](NC(=O)CCCCCCCCCOc1ccc(C(=O)O)cc1)C(=O)O)C(=O)N[C@@H](Cc1ccccc1)C(=O)N[C@H](C(=O)N[C@H](CCC(=O)O)C(=O)N[C@@](C)(Cc1ccc(O)cc1)C(=O)N[C@@H](CC(C)C)C(=O)N[C@H](C(=O)N[C@@H](CCCCNC(=O)COCCOCCNC(=O)COCCOCCNC(=O)CC[C@H](NC(=O)CCCCCCCCCOc1ccc(C(=O)O)cc1)C(=O)O)C(=O)NCC(=O)NCC(=O)N1CCC[C@H]1C(=O)N[C@@H](CO)C(=O)N[C@@H](CO)C(=O)NCC(=O)N[C@@H](C)C(=O)N1CCC[C@H]1C(=O)N1CCC[C@H]1C(=O)N1CCC[C@H]1C(=O)N[C@@H](CO)C(N)=O)[C@@H](C)CC)[C@@H](C)CC [Example 332] was tested, and the Emax (hGIPR; HEK293, read-out: hGIPR Emax, % ± SEM, cAMP, 37° C., 0.1% bovine casein and 1.0% human serum albumin) was 96.5%, the Emax (hGLP-1R; HEK293, read-out: hGLP-1R Emax, % ± SEM, cAMP, 37° C., 0.1% bovine casein and 1.0% human serum albumin) was 116% and the Emax (hGLP-1R; HEK293, read-out: hGLP-1R Emax, % ± SEM, cAMP, 37° C., 0.1% bovine casein, arithmetic mean) was 114%. The EC50 (hGLP-1R; [7]) was 0.263 nM, the EC50 (hGCGR; [8]) was > 9950 nM and the EC50 (hGCGR; hGCGR EC50, nM (SEM, n), cAMP, 0.1% bovine casein and 1.0% human serum albumin, geometric mean (SEM, n)) was > 9950 nM.
